Drawing on patent US9598446B2, “Amino compounds for treatment of complement mediated disorders” (priority 2014, dated 2017), this text covers IC50 for 17 compounds.

As usually defined, the IC50 is the point on the concentration scale where inhibition reaches its midpoint.

Some results are limits rather than exact numbers.

For the first experiment, the target named is Human factor D (Homo sapiens (Human), UniProt P00746). The experiment in a line: Human Factor D Assay.
Sequence of Human factor D (P00746 26-253): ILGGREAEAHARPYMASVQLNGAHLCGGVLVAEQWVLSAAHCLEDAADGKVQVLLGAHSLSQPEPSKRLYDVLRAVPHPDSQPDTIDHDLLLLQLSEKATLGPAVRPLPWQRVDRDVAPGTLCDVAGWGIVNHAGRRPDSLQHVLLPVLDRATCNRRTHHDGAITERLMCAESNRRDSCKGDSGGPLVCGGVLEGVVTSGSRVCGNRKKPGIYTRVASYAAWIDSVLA
Settings: not given
It counts as biochemical.
`CC(=O)c1cn(CC(=O)N2C[C@H](F)C[C@H]2C(=O)Nc2nc(-c3c(C)nc4sccn34)cs2)c2ccc(Nc3cncnc3)cc12` [Compound 49, (2S,4R)-1-(2-(3-acetyl-5-(pyrimidin-5-ylamino)-1H-indol-1-yl)acetyl)-4-fluoro-N-(4-(6-methylimidazo[2,1-b]thiazol-5-yl)thiazol-2-yl)pyrrolidine-2-carboxamide]: the half-maximal inhibitory concentration (IC50) was in the range of 1000 to 10000 nM.

With `CC(=O)c1cn(CC(=O)N2C[C@H](F)C[C@H]2C(=O)NC2CCc3c(F)ccc(F)c32)c2ccc(Nc3cncnc3)cc12` (stereo partly drawn) [Compound 51, (2S,4R)-1-(2-(3-acetyl-5-(pyrimidin-5-ylamino)-1H-indol-1-yl)acetyl)-N-(4,7-difluoro-2,3-dihydro-1H-inden-1-yl)-4-fluoropyrrolidine-2-carboxamide], the half-maximal inhibitory concentration (IC50) lay within 1000 to 10000 nM.

Take `CC(=O)c1cn(CC(=O)N2C[C@H](F)C[C@H]2C(=O)Nc2ccc(CN)cc2)c2ccc(Nc3cncnc3)cc12` [Compound 53, (2S,4R)-1-(2-(3-acetyl-5-(pyrimidin-5-ylamino)-1H-indol-1-yl)acetyl)-N-(4-(aminomethyl)phenyl)-4-fluoropyrrolidine-2-carboxamide]: the IC50 was in the range of 1000 to 10000 nM.

Take `COc1cc(C)cc2c1OCCC2NC(=O)[C@@H]1C[C@@H](F)CN1C(=O)Cn1cc(C(C)=O)c2cc(Nc3cncnc3)ccc21` (stereo partly drawn) [Compound 54, (2S,4R)-1-(2-(3-acetyl-5-(pyrimidin-5-ylamino)-1H-indol-1-yl)acetyl)-4-fluoro-N-(8-methoxy-6-methylchroman-4-yl)pyrrolidine-2-carboxamide]: the IC50 fell in the range of 1000 to 10000 nM.

As to `CC(=O)c1cn(CC(=O)N2C[C@H](F)C[C@H]2C(=O)Nc2c[nH]nc2-c2ccc(Cl)cc2Cl)c2ccc(Nc3cncnc3)cc12` [Compound 55, (2S,4R)-1-(2-(3-acetyl-5-(pyrimidin-5-ylamino)-1H-indol-1-yl)acetyl)-N-(3-(2,4-dichlorophenyl)-1H-pyrazol-4-yl)-4-fluoropyrrolidine-2-carboxamide], the half-inhibitory concentration (IC50) was 1000 to 10000 nM.

Still in this experiment, the particulars now being: human factor D 80 nM, substrate Z-L-Lys-SBz1 and DTNB 100 μM each, pH 7.5; read-out: IC50.
For the compound `CC(=O)c1cn(CC(=O)N2C[C@H](F)C[C@H]2C(=O)Nc2cccc(Cl)c2C(F)(F)F)c2ccc(Nc3cncnc3)cc12` [Compound 48, (2S,4R)-1-(2-(3-acetyl-5-(pyrimidin-5-ylamino)-1H-indol-1-yl)acetyl)-N-(3-chloro-2-(trifluoromethyl)-phenyl)-4-fluoropyrrolidine-2-carboxamide], the 50% inhibitory concentration (IC50) was < 1000 nM.

`CC(=O)c1cn(CC(=O)N2C[C@H](F)C[C@H]2C(=O)Nc2nc(-c3ccc4c(c3)CCCC4)cs2)c2ccc(Nc3cncnc3)cc12` [Compound 50, (2S,4R)-1-(2-(3-acetyl-5-(pyrimidin-5-ylamino)-1H-indol-1-yl)acetyl)-4-fluoro-N-(4-(5,6,7,8-tetrahydronaphthalen-2-yl)thiazol-2-yl)pyrrolidine-2-carboxamide]: the IC50 was > 10000 nM.

As to `CC(=O)c1cn(CC(=O)N2C[C@H](F)C[C@H]2C(=O)Nc2ccc3ncsc3c2)c2ccc(Nc3cncnc3)cc12` [Compound 56, (2S,4R)-1-(2-(3-acetyl-5-(pyrimidin-5-ylamino)-1H-indol-1-yl)acetyl)-N-(benzo[d]thiazol-6-yl)-4-fluoropyrrolidine-2-carboxamide], the half-maximal inhibitory concentration (IC50) is < 1000 nM.

As to `CC(=O)c1cn(CC(=O)N2C[C@H](F)C[C@H]2C(=O)Nc2cc(C)nn2-c2ccccc2F)c2ccc(Nc3cncnc3)cc12` [Compound 57, (2S,4R)-1-(2-(3-acetyl-5-(pyrimidin-5-ylamino)-1H-indol-1-yl)acetyl)-4-fluoro-N-(1-(2-fluorophenyl)-3-methyl-1H-pyrazol-5-yl)pyrrolidine-2-carboxamide], the 50% inhibitory concentration (IC50) is < 1000 nM.

In the case of `CC(=O)c1cn(CC(=O)N2C[C@H](F)C[C@H]2C(=O)NC2CCCN(c3ccccc3Cl)C2=O)c2ccc(Nc3cncnc3)cc12` (stereo partly drawn) [Compound 58, (2S,4R)-1-(2-(3-acetyl-5-(pyrimidin-5-ylamino)-1H-indol-1-yl)acetyl)-N-(1-(2-chlorophenyl)-2-oxopiperidin-3-yl)-4-fluoropyrrolidine-2-carboxamide], the IC50 was < 1000 nM.

Regarding `CC(=O)c1cn(CC(=O)N2C[C@H](F)C[C@H]2C(=O)NCc2ccncc2)c2ccc(Nc3cncnc3)cc12` [Compound 59, (2S,4R)-1-(2-(3-acetyl-5-(pyrimidin-5-ylamino)-1H-indol-1-yl)acetyl)-4-fluoro-N-(pyridin-4-ylmethyl)pyrrolidine-2-carboxamide], the IC50 is < 1000 nM.

`CC(=O)c1cn(CC(=O)N2C[C@H](F)C[C@H]2C(=O)Nc2nc(-c3cccc(Cl)c3)ns2)c2ccc(Nc3cncnc3)cc12` [Compound 60, (2S,4R)-1-(2-(3-acetyl-5-(pyrimidin-5-ylamino)-1H-indol-1-yl)acetyl)-N-(3-(3-chlorophenyl)-1,2,4-thiadiazol-5-yl)-4-fluoropyrrolidine-2-carboxamide]: the IC50 was > 10000 nM.

For `CC(=O)c1cn(CC(=O)N2C[C@H](F)C[C@H]2C(=O)Nc2ccccc2-c2nncn2C)c2ccc(Nc3cncnc3)cc12` [Compound 61, (2S,4R)-1-(2-(3-acetyl-5-(pyrimidin-5-ylamino)-1H-indol-1-yl)acetyl)-4-fluoro-N-(2-(4-methyl-4H-1,2,4-triazol-3-yl)phenyl)pyrrolidine-2-carboxamide], the half-inhibitory concentration (IC50) was > 10000 nM.

With `CC(=O)c1cn(CC(=O)N2C[C@H](F)C[C@H]2C(=O)Nc2noc(-c3ccccc3Cl)n2)c2ccc(Nc3cncnc3)cc12` [Compound 62, (2S,4R)-1-(2-(3-acetyl-5-(pyrimidin-5-ylamino)-1H-indol-1-yl)acetyl)-N-(5-(2-chlorophenyl)-1,2,4-oxadiazol-3-yl)-4-fluoropyrrolidine-2-carboxamide], the 50% inhibitory concentration (IC50) is < 1000 nM.

As to `CC(=O)c1cn(CC(=O)N2C[C@H](F)C[C@H]2C(=O)NC2CCCN(c3cc(C)ccc3F)C2=O)c2ccc(Nc3cncnc3)cc12` (stereo partly drawn) [Compound 63, (2S,4R)-1-(2-(3-acetyl-5-(pyrimidin-5-ylamino)-1H-indol-1-yl)acetyl)-4-fluoro-N-(1-(2-fluoro-5-methylphenyl)-2-oxopiperidin-3-yl)pyrrolidine-2-carboxamide], the 50% inhibitory concentration (IC50) is < 1000 nM.

As for `CC(=O)c1cn(CC(=O)N2C[C@H](F)C[C@H]2C(=O)NC2CCN(c3ccn(C)n3)C2=O)c2ccc(Nc3cncnc3)cc12` (stereo partly drawn) [Compound 64, (2S,4R)-1-(2-(3-acetyl-5-(pyrimidin-5-ylamino)-1H-indol-1-yl)acetyl)-4-fluoro-N-(1-(1-methyl-1H-pyrazol-3-yl)-2-oxopyrrolidin-3-yl)pyrrolidine-2-carboxamide], the IC50 is < 1000 nM.

On to `CC(=O)c1cn(CC(=O)N2C[C@H](F)C[C@H]2C(=O)Nc2cccc(O)n2)c2ccc(Nc3cncnc3)cc12` [Compound 68, (2S,4R)-1-(2-(3-acetyl-5-(pyrimidin-5-ylamino)-1H-indol-1-yl)acetyl)-4-fluoro-N-(6-hydroxypyridin-2-yl)pyrrolidine-2-carboxamide], for which the IC50 was < 1000 nM.
